The subject of data set [1] is Rift Valley fever virus. Put plainly: Antiviral activity against Rift Valley fever virus. Format: functional, organism-based.
Data set [2] deals with Zika virus. Put plainly: Antiviral activity against Zika virus. Format: functional, organism-based.
Data set [3] deals with Human betaherpesvirus 5. Put plainly: Antiviral activity against human cytomegalovirus. Format: functional, organism-based.
Data set [4] relates to Tacaribe virus. Put plainly: Antiviral activity against Tacaribe virus infected in African green monkey Vero cells assessed as reduction in virus induced cytopathic effect. Format: functional, organism-based. The following applies: Mammarenavirus tacaribeense. In general terms: Damage to the host cells serves as the signal in cytopathic effect assays.
The test system of data set [5] is Chikungunya virus. Put plainly: Antiviral activity against Chikungunya virus. The class given is functional, organism-based.
Data set [6] has as its system Ebolavirus. Put plainly: Antiviral activity against Ebolavirus infected in African green monkey Vero cells by immunofluorescent assay. Format: functional, organism-based. The following applies: for EC50: Orthoebolavirus.
The subject of data set [7] is Pichinde virus. Put plainly: Antiviral activity against Pichinde virus infected in African green monkey Vero cells assessed as reduction in virus induced cytopathic effect. The class given is functional, organism-based.
The subject of data set [8] is West Nile virus. Put plainly: Antiviral activity against West Nile virus. The class given is functional, organism-based.
The test system of data set [9] is Punta Toro virus. Put plainly: Antiviral activity against Punta Toro virus. Format: functional, organism-based.
The subject of data set [10] is Japanese encephalitis virus. Put plainly: Antiviral activity against Japanese encephalitis virus. Format: functional, organism-based.
In data set [11] the test system is H1N1 subtype. Put plainly: Antiviral activity against Influenza A virus (H1N1). Format: functional.
The test system of data set [12] is Yellow fever virus. Put plainly: Antiviral activity against Yellow fever virus. Format: functional, organism-based.
The test system of data set [13] is Venezuelan equine encephalitis virus. Put plainly: Antiviral activity against Venezuelan equine encephalitis virus. Format: functional, organism-based.
Data set [14] has as its system Human adenovirus 5. Put plainly: Antiviral activity against Human adenovirus 5. The class given is functional, organism-based.
The test system of data set [15] is Lassa virus. Put plainly: Antiviral activity against Lassa virus. The following applies: Mammarenavirus lassaense. The class given is functional, organism-based.
Data set [16] has as its system Junin virus. Put plainly: Antiviral activity against Junin virus. The class given is functional, organism-based. The following applies: Mammarenavirus juninense.
A short description of data set [17]: Cytotoxicity against African green monkey Vero cells. The class given is cell-based. The note with it: chlorocebus sabaeus.

In brackets after ≈: the same amount, converted by molar mass. Activity calls are given as the source filed them. No cut-off for these calls is given here. A value given as a limit tells only on which side of the number the result lay.

In the case of `Nc1nccc2c1ncn2[C@H]1C=C(CF)[C@H](O)[C@@H]1O`, the outcome in [1], in data set [2], in [3], in data set [4], in [5] and in data set [6] was inactive. In addition, the outcome in [7], in data set [8], in data set [9], in [10], in data set [11] and in data set [12] was inactive. The outcome in [13], in data set [14], in data set [15] and in data set [16] was inactive.
As to `Nc1ncc(Br)c2c1ncn2[C@H]1C=C(CO)[C@H](O)[C@@H]1O`, the CC50 in [17] lay within 83 to 100 µg/mL (≈ 243 to 293 µM). The outcome in data set [3], in [5], in data set [10], in [11], in data set [14] and in [15] was inactive. In addition, the outcome in data set [16] was inactive. Besides, the EC50 in data set [4] was greater than 100 µg/mL; in data set [6], 4.2 µg/mL (≈ 12.3 µM); in [7], greater than 100 µg/mL.
With `NC(=O)c1nc(F)cnc1O` [FAVIPIRAVIR], the EC50 in [6] was 18.6 µg/mL (≈ 118 µM).
As for `Nc1nccc2c1ncn2[C@H]1C=C(CO)[C@H](O)[C@@H]1O`, the CC50 in data set [17] was 12 to 85 µg/mL (≈ 45.8 to 324 µM). For the same molecule, the outcome in data set [3], in data set [5], in [10], in [11], in data set [14] and in data set [15] was inactive. Moreover, the result in [16] was inactive. Also, the values for the EC50 in data set [4], in data set [6] and in data set [7] were 1.3 µg/mL (≈ 4.96 µM), 8.7 µg/mL (≈ 33.2 µM) and 0.9 µg/mL (≈ 3.43 µM), respectively.
Regarding `NC(=O)c1ncn([C@@H]2O[C@H](CO)[C@@H](O)[C@H]2O)n1` [RIBAVIRIN], the concentration for a half-maximal effect (EC50) in data set [4] is 9.3 µg/mL (≈ 38.1 µM); in data set [7] it was 12 µg/mL (≈ 49.1 µM).

As a reminder, the CC50 is the concentration at which the toxic effect on the cells reaches its halfway point. Usually EC50 stands for the concentration at which the effect is half-maximal.
